# Assays:
# [1] = system: U251 Glioblastoma cell line; assay: Cytotoxicity assay (MTT, 72 hours, daily administration) in U251; assay type: cell-based; conditions: Homo sapiens, U-251, read-out: % VIABILITY ± S.D.
# From the text: (§1) The combinations were effective in other human tumor cell lines and we tested in glioblastoma cell line and endometrial cancer cell Additional tests include data obtained from two independent experiments, six wells for dose.
# [2] = system: MIAPaCa-2 cell line; assay: Cytotoxicity assay (MTT, 72 hours, daily administration) in MIAPaCa-2; conditions: Homo sapiens, MIA PaCa-2, read-out: % VIABILITY ± S.D.
# Method: (§2) Human pancreatic ductal adenocarcinoma (PANC-1 and MIAPaCa-2) cell lines were purchased by Sigma Aldrich (Milan, Italy) and cultured in DMEM high glucose medium (EuroClone, Milan, Italy) supplemented with 10% of fetal bovine serum (FBS), 2 mM L-glutamine, 100 IU/mL penicillin, 100 mg streptomycin and 1 mM sodium pyruvate. Cell lines were maintained at 37° C. with 5% CO2 and 95% of humidity.
# (§3) 3×10^4 cells/mL were seeded in 96-well plates in a final volume of 100 L/well. After one day of incubation, compounds or vehicles, alone or in combination, were added and six replicates were used for each treatment and all experiments were repeated three times. In all the experiments, the treatment was daily added, after washing with fresh medium. After 72 hours cell viability was investigated by adding 0.8 mg/mL of 3-[4,5-dimethylthiazol-2-yl]-2,5 diphenyl tetrazolium bromide (MTT) (Sigma Aldrich) to the media. After 3 h the supernatant was removed, and the pellet of salt crystals was solubilized with 100 μL/well of DMSO. The absorbance of the sample against a background control was measured at 570 nm using an ELISA reader microliter plate (BioTek Instruments, Winooski, VT, USA).
# (§4) Cytotoxicity in PDAC cell lines: The effect of CBD, MLT and AKBA in reducing cell viability was evaluated at 72 hours, post daily administration, in PDAC cell lines. Cells were treated with different doses of CBD, MLT and AKBA (up to 1 mg) and percentage of cell viability was evaluated by the MTT assay. […] The compounds were administered daily for 72 hours, as in previous experiments at the desired doses. […] MTT assay was used to analyse the cell cytotoxicity.
# [3] = system: PANC-1 cell line; assay: Cytotoxicity assay (MTT, 72 hours, daily administration) in PANC-1; conditions: Homo sapiens, PANC-1, read-out: % VIABILITY ± S.D.
# Method: as §2, §3, §4
# [4] = system: pancreatic adenocarcinoma associated genes; assay: TaqMan Array gene expression in PANC-1, normalized for GAPDH; conditions: 24 hs, CBD 3.8, MLT 200, AKBA 7.5 micrograms/ml
# Method: Total RNA from untreated or CBD, MLT, AKBA alone and in combination treated cell lines was extracted using Rneasy Mini kit (Qiagen, Milan, Italy). One microgram of total RNA from each sample was subjected to reverse transcription in a total volume of 20 μL using the High-Capacity cDNA Archive Kit (Applied Biosystem, Foster City, […], USA) according to the instructions. cDNAs were analyzed by qRT-PCR performed using an IQ5 Multicolor Real time PCR Detection system. Quantitative real-time gene expression was performed with the TaqMan® Array Human Pancreatic Adenocarcinoma 96-well Plate, containing 92 assays to pancreatic adenocarcinoma associated genes and 4 assays to candidate endogenous control genes, was purchased (Thermo Fisher, Grand Island, NY, USA) and used to evaluate the treatments in modulating PDAC-related genes (Table 1). Measurement of different housekeeping genes (GAPDH; HPRT1; GUSB) on the samples was used to normalize mRNA content. The gene expression levels of treated cell lines were expressed as relative fold compared with untreated or vehicle-treated cells.
# To elucidate the molecular events induced by CBD, MLT and AKBA alone and in combination, 92 genes involved in PDAC progression and aggressiveness were evaluated by Taqman Array. Both cell lines were treated with CBD, MLT and AKBA alone and in combination, and the molecular pathways of PDAC associated gene were evaluated.
# Target mRNA levels were normalized for GAPDH expression.
# [5] = system: PCEM004a endometrial cancer cell line; assay: Cytotoxicity assay (MTT, 72 hours, daily administration) in PCEM004a; assay type: cell-based; conditions: Homo sapiens, read-out: % VIABILITY ± S.D.
# From the text: as §1
smiles,measurement,setting,value
"COc1ccc2[nH]cc(CCNC(C)=O)c2c1 [MLT, N-[2-(5-methoxy-1H-indol-3-yl)ethyl]acetamide]",viability at 100 µg/mL,[1],100 ± 2.3%
same,viability at 200 µg/mL,[1],65.4 ± 4.4%
same,viability at 400 µg/mL,[1],58.2 ± 4.1%
same,viability at 800 µg/mL,[1],17 ± 1.1%
same,viability at 100 µg/mL,[2],100 ± 8.8%
same,viability at 200 µg/mL,[2],87.8 ± 8.2%
same,viability at 400 µg/mL,[2],78.2 ± 8.5%
same,viability at 800 µg/mL,[2],12.5 ± 0.8%
same,viability at 100 µg/mL,[3],100 ± 5.7%
same,viability at 200 µg/mL,[3],97.4 ± 6.1%
same,viability at 400 µg/mL,[3],83.9 ± 6.1%
same,viability at 800 µg/mL,[3],19.2 ± 1.1%
same,AKT3 mRNA relative expression,[4]; VEI 0.00,0.00
same,ARHGEF7 mRNA relative expression,[4]; VEI 0.00,0.017
same,BCL2 mRNA relative expression,[4]; VEI 0.00,0.00
same,CCND2 mRNA relative expression,[4]; VEI 0.00,0.00
same,CDKN2B mRNA relative expression,[4]; VEI 0.00,1.65
same,CYP2E1 mRNA relative expression,[4]; VEI 0.00,0.00
same,EGF mRNA relative expression,[4]; VEI 0.00,0.00
same,IGF1 mRNA relative expression,[4]; VEI 0.00,0.00
same,IL6 mRNA relative expression,[4]; VEI 0.00,0.00
same,KDR mRNA relative expression,[4]; VEI 0.00,0.00
same,KIT mRNA relative expression,[4]; VEI 0.00,0.01
same,MAPK3 mRNA relative expression,[4]; VEI 0.00,0.00
same,MMP1 mRNA relative expression,[4]; VEI 0.00,0.07
same,MMP3 mRNA relative expression,[4]; VEI 0.00,0.00
same,TGFA mRNA relative expression,[4]; VEI 0.00,0.22
same,TGFB2 mRNA relative expression,[4]; VEI 0.00,0.00
same,JAK2 mRNA relative expression,[4]; VEI 0.01,0.01
same,JAK3 mRNA relative expression,[4]; VEI 0.01,0.00
same,MMP7 mRNA relative expression,[4]; VEI 0.01,0.01
same,MMP9 mRNA relative expression,[4]; VEI 0.01,0.04
same,PK3CA mRNA relative expression,[4]; VEI 0.01,0.00
same,RAC2 mRNA relative expression,[4]; VEI 0.01,0.01
same,RB1 mRNA relative expression,[4]; VEI 0.01,0.03
same,TGFB3 mRNA relative expression,[4]; VEI 0.01,0.00
same,TGFBR1 mRNA relative expression,[4]; VEI 0.02,0.00
same,BRCA2 mRNA relative expression,[4]; VEI 0.03,0.34
same,CDKN2D mRNA relative expression,[4]; VEI 0.03,0.04
same,MDM2 mRNA relative expression,[4]; VEI 0.03,0.00
same,RHOB mRNA relative expression,[4]; VEI 0.03,0.03
same,CDKN2C mRNA relative expression,[4]; VEI 0.04,0.14
same,PK3R1 mRNA relative expression,[4]; VEI 0.04,0.02
same,PTGS2 mRNA relative expression,[4]; VEI 0.04,0.02
same,STATSB mRNA relative expression,[4]; VEI 0.04,0.45
same,MAPK1 mRNA relative expression,[4]; VEI 0.05,0.02
same,SMAD2 mRNA relative expression,[4]; VEI 0.05,0.19
same,CCND1 mRNA relative expression,[4]; VEI 0.06,0.10
same,MAP2K2 mRNA relative expression,[4]; VEI 0.06,0.08
same,PK3CD mRNA relative expression,[4]; VEI 0.06,0.06
same,TGFBR2 mRNA relative expression,[4]; VEI 0.06,0.00
same,VEGFA mRNA relative expression,[4]; VEI 0.06,0.03
same,VEGFB mRNA relative expression,[4]; VEI 0.06,0.05
same,CCNA2 mRNA relative expression,[4]; VEI 0.07,0.07
same,CCNE2 mRNA relative expression,[4]; VEI 0.07,0.07
same,EZF3 mRNA relative expression,[4]; VEI 0.07,0.08
same,SMAD4 mRNA relative expression,[4]; VEI 0.07,0.08
same,SOS1 mRNA relative expression,[4]; VEI 0.07,0.06
same,TGFB1 mRNA relative expression,[4]; VEI 0.07,0.05
same,MAP2K1 mRNA relative expression,[4]; VEI 0.08,0.03
same,MMP2 mRNA relative expression,[4]; VEI 0.08,0.00
same,VEGFC mRNA relative expression,[4]; VEI 0.08,0.00
same,CCNE1 mRNA relative expression,[4]; VEI 0.09,0.11
same,CDK2 mRNA relative expression,[4]; VEI 0.09,0.07
same,KRAS mRNA relative expression,[4]; VEI 0.09,0.01
same,RAC1 mRNA relative expression,[4]; VEI 0.09,0.00
same,REL mRNA relative expression,[4]; VEI 0.09,0.08
same,STAT2 mRNA relative expression,[4]; VEI 0.09,0.00
same,CDKN1B mRNA relative expression,[4]; VEI 0.10,0.09
same,CDKN2A mRNA relative expression,[4]; VEI 0.10,0.16
same,RELA mRNA relative expression,[4]; VEI 0.10,0.00
same,AKT1 mRNA relative expression,[4]; VEI 0.11,0.10
same,PK3CB mRNA relative expression,[4]; VEI 0.11,0.13
same,FIGF mRNA relative expression,[4]; VEI 0.14,0.11
same,TP53 mRNA relative expression,[4]; VEI 0.14,0.29
same,EZF4 mRNA relative expression,[4]; VEI 0.16,0.16
same,NFKB2 mRNA relative expression,[4]; VEI 0.16,0.02
same,EZF1 mRNA relative expression,[4]; VEI 0.17,0.14
same,SMAD3 mRNA relative expression,[4]; VEI 0.17,0.22
same,STAT1 mRNA relative expression,[4]; VEI 0.18,0.12
same,BRAF mRNA relative expression,[4]; VEI 0.22,0.13
same,BIRC5 mRNA relative expression,[4]; VEI 0.23,0.13
same,JAK1 mRNA relative expression,[4]; VEI 0.23,0.02
same,CDK4 mRNA relative expression,[4]; VEI 0.24,0.17
same,EGFR mRNA relative expression,[4]; VEI 0.24,0.16
same,RAF1 mRNA relative expression,[4]; VEI 0.25,0.06
same,CCNB1 mRNA relative expression,[4]; VEI 0.27,0.33
same,ERBB2 mRNA relative expression,[4]; VEI 0.27,0.04
same,SRC mRNA relative expression,[4]; VEI 0.27,0.03
same,GRB2 mRNA relative expression,[4]; VEI 0.31,0.23
same,BCL2L1 mRNA relative expression,[4]; VEI 0.35,0.21
same,HSP90AA1 mRNA relative expression,[4]; VEI 0.35,0.00
same,NFKB1 mRNA relative expression,[4]; VEI 0.35,0.09
same,RHOA mRNA relative expression,[4]; VEI 0.37,0.07
same,ELK1 mRNA relative expression,[4]; VEI 0.41,0.09
same,RELB mRNA relative expression,[4]; VEI 0.42,0.06
same,CDC42 mRNA relative expression,[4]; VEI 0.45,0.00
same,CDKN1A mRNA relative expression,[4]; VEI 0.49,0.07
same,AKT2 mRNA relative expression,[4]; VEI 0.50,0.46
same,HBEGF mRNA relative expression,[4]; VEI 0.53,0.39
same,NOTCH1 mRNA relative expression,[4]; VEI 1.03,0.32
same,STAT6 mRNA relative expression,[4]; VEI 1.38,0.01
same,STAT3 mRNA relative expression,[4]; VEI 4.45,0.07
same,viability at 100 µg/mL,[5],96.5 ± 8.2%
same,viability at 200 µg/mL,[5],90.4 ± 6.2%
same,viability at 400 µg/mL,[5],80.1 ± 5.3%
same,viability at 800 µg/mL,[5],31.3 ± 2.8%
